Reference: US10307587B2, “Methods and devices for treating the skin” (VOMARIS INNOVATIONS, INC., priority 2014, dated 2019)

Columns and labels:
HUVEC cells [1] = assay: EF-induced reorientation of endothelial cells (orientation index Oi); assay type: cell-based, human; conditions: for orientation response / reorientation of cells in an EF: drug 50 μM, 1 hour before and during EF exposure
Description: HUVEC cells were seeded in a trough formed by two parallel (1 cm apart) strips of glass coverslip (No. 1, length of 22 mm) fixed to the base of the dish with silicone grease. Scratch lines were made perpendicular to the long axis of the chamber with a fine sterile needle and used as reference marks for directed cell migration. Cells were incubated for 24-48 hours (37° C., 5% CO2) before a roof coverslip was applied and sealed with silicone grease. The final dimensions of the chamber, through which current was passed, were 22×10×0.2 mm. Agar-salt bridges not less than 15 cm long were used to connect silver/silver-chloride electrodes in beakers of Steinberg's solution (58 mM NaCl, 0.67 mM KCl, 0.44 mM Ca(NO3)2, 1.3 mM MgSO4, 4.6 mM Trizma base, pH 7.8-8.0), to pools of excess culture medium at either side of the chamber. Field strengths were measured directly at the beginning of, the end of and during each experiment. No fluctuations in field strength were observed. […] (50 μM), the Rho kinase inhibitor Y27632 (50 μM), both Akt and Rho kinase inhibitors (10 μM each) or latrunculin (50 nM) for 1 hour before EF stimulation. The same concentration of drug was present during EF exposure in a CO2 incubator.
A series of images was taken with an image analyser immediately before EF exposure and at 4, 8 and 24 hours of EF exposure. Cell orientation was quantified as an orientation index (Oi), which is defined as Oi=cos 2(α), where α is the angle formed by the long axis of a cell with a line drawn perpendicular to the field lines. A cell with its long axis parallel to the vector of the EF will have an Oi of −1, and a cell with its long axis exactly perpendicular to the EF vector will have an Oi of +1. […] The significance of this two-dimensional orientation distribution against randomness was calculated using Rayleigh's distribution. A long:short axis ratio was calculated for assessment of elongation.
Cell alignment was quantified using an orientation index Oi=cos 2(α), where α is the angle formed between the long axis of a cell and a line drawn perpendicular to the field lines. […]

HUVEC cells [2] = assay: EF-induced elongation of endothelial cells (long:short axis ratio); assay type: cell-based, human; conditions: drug 50 μM
Description: HUVEC cells were seeded in a trough formed by two parallel (1 cm apart) strips of glass coverslip (No. 1, length of 22 mm) fixed to the base of the dish with silicone grease. Scratch lines were made perpendicular to the long axis of the chamber with a fine sterile needle and used as reference marks for directed cell migration. Cells were incubated for 24-48 hours (37° C., 5% CO2) before a roof coverslip was applied and sealed with silicone grease. The final dimensions of the chamber, through which current was passed, were 22×10×0.2 mm. […] Field strengths were measured directly at the beginning of, the end of and during each experiment. […]
A series of images was taken with an image analyser immediately before EF exposure and at 4, 8 and 24 hours of EF exposure. Cell orientation was quantified as an orientation index (Oi), which is defined as Oi=cos 2(α), where α is the angle formed by the long axis of a cell with a line drawn perpendicular to the field lines. […] The significance of this two-dimensional orientation distribution against randomness was calculated using Rayleigh's distribution. A long:short axis ratio was calculated for assessment of elongation.
HUVEC cells elongated dramatically in an EF. […] We quantified the elongation of the cells using a long:short axis ratio. […]

Human keratinocytes = assay: in vitro scratch assay (cell migration); assay type: cell-based; conditions: for increased keratinocyte migration observed with LLEC, under N-acetyl cysteine: 5 mM, pretreated 1 h before scratch assay
Text: The in vitro scratch assay is an easy, low-cost and well-developed method to measure cell migration in vitro. The basic steps involve creating a “scratch” in a cell monolayer, capturing images at the beginning and at regular intervals during cell migration to close the scratch, and comparing the images to quantify the migration rate of the cells. Compared to other methods, the in vitro scratch assay is particularly suitable for studies on the effects of cell-matrix and cell-cell interactions on cell migration, mimic cell migration during wound healing in vivo and are compatible with imaging of live cells during migration to monitor intracellular events if desired. In addition to monitoring migration of homogenous cell populations, this method has also been adopted to measure migration of individual cells in the leading edge of the scratch. Not taking into account the time for transfection of cells, in vitro scratch assay per se usually takes from several hours to overnight.
Human keratinocytes were plated under plated under placebo or a LLEC system (labeled “PROCELLERA®”). Cells were also plated under silver-only or zinc-only dressings. After 24 hours, the scratch assay was performed.
Measurement of the potential difference between adjacent zinc and silver dots when the LLEC is in contact with de-ionized water yielded a value of about 0.2 Volts. Though the potential difference between zinc and silver dots can be measured, non-intrusive measurement of the electric field arising from contact between the LLEC and liquid medium was difficult. Keratinocyte migration was accelerated by exposure to an Ag/Zn LLEC.
Scratch assay—A cell migration assay was performed using culture inserts (IBIDI®, Verona, Wis.) according to the manufacturers instructions. Cell migration was measured using time-lapse phase-contrast microscopy following withdrawal of the insert. Images were analyzed using the AxioVision Rel 4.8 software.
N-Acetyl Cysteine Treatment—Cells were pretreated with 5 mM of the thiol antioxidant N-acetylcysteine (Sigma) for 1 h before start of the scratch assay. […]

Compound | orientation response / reorientation of cells in an EF (HUVEC cells [1]) | long:short axis ratio in EF-treated cells (HUVEC cells [2]) | further results
1-L-6-hydroxymethyl-chiro-inositol 2-[(R)-2-O-methyl-3-O-octadecylcarbonate] [Akt inhibitor] | significantly decreased | significantly decreased | 
COc1cc([C@@H]2c3cc4c(cc3[C@H](O)[C@H]3COC(=O)[C@@H]23)OCO4)cc(OC)c1OC [IGF-1R inhibitor, picropodophyllin] |  |  | increased keratinocyte migration observed with LLEC, under IGF-1R inhibitor (Human keratinocytes; 50 nM picropodophyllin just prior to scratch assay): attenuated the increased keratinocyte migration
CC(=O)N[C@@H](CS)C(=O)O [N-Acetyl Cysteine, N-acetylcysteine] |  |  | increased keratinocyte migration observed with LLEC, under N-acetyl cysteine (Human keratinocytes): failed to reproduce the increased migration; increased keratinocyte migration observed with LLEC, under N-acetyl cysteine (Human keratinocytes; listed as N-acetyl cysteine): prevented
N#CC(=C(/N)Sc1ccccc1N)/C(C#N)=C(\N)Sc1ccccc1N [U0126] |  |  | Oi (HUVEC cells [1]): 0.33±0.03
COc1cc2ncnc(Nc3ccc(Cl)cc3F)c2cc1OC [VEGFR inhibitor, 4-[(4′-chloro-2′-fluoro)phenylamino]-6,7-dimethoxyquinazoline] | completely abolished |  | 
C[C@@H](N)[C@H]1CC[C@H](C(=O)Nc2ccncc2)CC1 [Y27632] |  | significantly decreased | 
